Earlier results as cited in PMC10104807, “Modulation of tau tubulin kinases (TTBK1 and TTBK2) impacts ciliogenesis” (Scientific Reports, 2023).

Experiments:
[1] = system: tau phosphorylation; settings: cited from earlier work
[2] = system: 403 wild-type (WT) human kinases; parameters: method as in PMID 33944571; settings: 1 μM; cited from earlier work
[3] = parameters: method as in PMID 34978799; settings: cited from earlier work

SMILES | tau phosphorylation at multiple disease-relevant sites in vivo [1] | number of kinases bound with PoC < 10 in DiscoverX scanMAX panel [2] | brain penetration [3]
CC[C@](C)(O)C#Cc1cc2c(ccn2-c2cc(OC)nc(N)n2)cn1 [BGN31] | significantly lowered | eight | –
Clc1ccc(-c2ccc(Nc3ncnc4[nH]ccc34)cc2)cc1 [compound 29] | – | – | good brain penetration
CC[C@](C)(O)C#Cc1cc2c(cn1)cnn2-c1ccnc(N)n1 [BGN18] | – | sixteen | –
